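96-well plates; 48 h exposure; 5 concentrations. Endpoints by linear interpolation between flanking doses. Not reached: highest tested concentration assigned. GI50: concentration for 50% inhibition of growth.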 Activity calls are given as the source filed them. Cut-off read from the data, not from the text of the source: active = GI50 up to about 1.1 µM and inactive = higher.
Assays:
Experiment in all cases: growth of human tumour cells (NCI), 48 h
NCI-H460 = tested on: NCI-H460
SK-MEL-28 = tested on: SK-MEL-28
COLO 205 = tested on: COLO 205
786-0 = tested on: 786-0
UACC-257 = tested on: UACC-257
SN12C = tested on: SN12C
HL-60 = tested on: HL-60
OVCAR-8 = tested on: OVCAR-8
SNB-19 = tested on: SNB-19
M14 = tested on: M14
ACHN = tested on: ACHN
LOX IMVI = tested on: LOX IMVI
SF-539 = tested on: SF-539
CAKI-1 = tested on: CAKI-1
A549 = tested on: A549
NCI/ADR-RES = tested on: NCI/ADR-RES
DU-145 = tested on: DU-145
MDA-MB-231 = tested on: MDA-MB-231
MCF7 = tested on: MCF7

Measured: GI50

N=C(N)N/N=C/c1c[nH]c2ccccc12
inactive: NCI-H460 > 100 µM | SK-MEL-28 > 100 µM | COLO 205 > 100 µM | 786-0 > 100 µM | UACC-257 > 100 µM | SN12C > 100 µM | HL-60 > 100 µM | OVCAR-8 > 100 µM | SNB-19 > 100 µM | M14 > 100 µM | ACHN > 100 µM | LOX IMVI > 100 µM | SF-539 > 100 µM | CAKI-1 > 100 µM | A549 > 100 µM

CC(=O)NC(CCCN(Cc1ccccc1)C(=O)NCCCl)C(=O)NCc1ccccc1 (stereo unspecified)
inactive: NCI-H460 > 100 µM | SK-MEL-28 > 100 µM | COLO 205 > 100 µM | 786-0 > 100 µM | UACC-257 > 100 µM | SN12C > 100 µM | HL-60 > 100 µM | OVCAR-8 > 100 µM | SNB-19 > 100 µM | M14 > 100 µM | ACHN > 100 µM | LOX IMVI > 100 µM | SF-539 > 100 µM | CAKI-1 > 100 µM | A549 > 100 µM

Oc1cc2cc(-c3ccccc3)[nH]c2c2ccccc12
inactive: NCI-H460 24 µM | SK-MEL-28 42.3 µM | COLO 205 10.4 µM | 786-0 > 59 µM | UACC-257 16 µM | SN12C 28.8 µM | HL-60 8.15 µM | OVCAR-8 32.7 µM | SNB-19 21.7 µM | M14 20.3 µM | ACHN 25 µM | LOX IMVI 16.1 µM | SF-539 28.6 µM | CAKI-1 18.5 µM | A549 30.1 µM

Nc1ccc(C(=O)NN2C(=O)C(Cl)C2c2ccc([N+](=O)[O-])cc2)cc1 (stereo unspecified)
inactive: NCI-H460 6.21 µM | SK-MEL-28 7.23 µM | COLO 205 14.8 µM | 786-0 3.87 µM | UACC-257 14.7 µM | SN12C 14.8 µM | HL-60 1.92 µM | OVCAR-8 14.6 µM | SNB-19 13.1 µM | M14 12.9 µM | ACHN 12.3 µM | LOX IMVI 1.74 µM | SF-539 11.6 µM | CAKI-1 20 µM | A549 11.9 µM

Cc1nc(-c2nc(C)c(C(=O)/C=C/c3ccc(N(C)C)cc3)s2)sc1C(=O)/C=C/c1ccc(N(C)C)cc1
inactive: NCI-H460 > 100 µM | SK-MEL-28 67.3 µM | COLO 205 > 100 µM | 786-0 54 µM | UACC-257 > 100 µM | SN12C > 100 µM | HL-60 46 µM | OVCAR-8 > 100 µM | SNB-19 64.1 µM | M14 38.5 µM | ACHN > 100 µM | LOX IMVI 38.3 µM | SF-539 41.7 µM | CAKI-1 > 100 µM | A549 44.2 µM

C=C(C)CCC(O)[C@](C)(O)[C@H]1[C@H](O)C[C@@]2(C)[C@@H]3CCc4c(cc(OC5OC(CO)C(O)C(O)C5O)c(O)c4C)C3(C)C(=O)C[C@]12C (stereo partly specified)
inactive: NCI-H460 > 100 µM | NCI/ADR-RES > 100 µM | SK-MEL-28 > 100 µM | COLO 205 > 100 µM | 786-0 > 100 µM | UACC-257 > 100 µM | SN12C > 100 µM | DU-145 > 100 µM | OVCAR-8 > 100 µM | SNB-19 > 100 µM | MDA-MB-231 > 100 µM | M14 > 100 µM | ACHN > 100 µM | LOX IMVI > 100 µM | SF-539 > 100 µM | CAKI-1 > 100 µM | MCF7 > 100 µM | A549 > 100 µM

Cc1c(C(=O)Nc2ccc(Cl)c(C(F)(F)F)c2)oc2cc(O)ccc2/c1=N\NC(N)=S
inactive: NCI-H460 > 100 µM | SK-MEL-28 > 100 µM | COLO 205 > 100 µM | 786-0 > 100 µM | UACC-257 > 100 µM | SN12C > 100 µM | HL-60 > 100 µM | OVCAR-8 > 100 µM | SNB-19 > 100 µM | M14 > 100 µM | ACHN > 100 µM | LOX IMVI > 100 µM | SF-539 > 100 µM | CAKI-1 > 100 µM | A549 > 100 µM

CCCCc1c(C(=O)OC(C)(C)C)cc(C#Cc2cc(C(=O)OC(C)(C)C)c(CCCC)c(C(=O)OC(C)(C)C)c2)cc1C(=O)OC(C)(C)C
inactive: NCI-H460 > 100 µM | NCI/ADR-RES > 100 µM | SK-MEL-28 > 100 µM | COLO 205 > 100 µM | 786-0 > 100 µM | UACC-257 > 100 µM | SN12C > 100 µM | DU-145 > 100 µM | SNB-19 > 100 µM | MDA-MB-231 > 100 µM | M14 > 100 µM | ACHN > 100 µM | CAKI-1 > 100 µM | MCF7 > 100 µM | A549 > 100 µM

COc1cc(/C=N\c2ccc(C(C)C)cc2)cc(OC)c1OC
inactive: NCI-H460 97.3 µM | SK-MEL-28 > 100 µM | COLO 205 > 73.6 µM | 786-0 > 100 µM | UACC-257 > 100 µM | SN12C > 100 µM | HL-60 > 40.9 µM | OVCAR-8 > 100 µM | SNB-19 > 100 µM | M14 > 100 µM | ACHN > 100 µM | LOX IMVI > 54.7 µM | SF-539 > 100 µM | CAKI-1 > 100 µM | A549 > 100 µM

Cc1cc2c(O)c(c1)COCc1cc(C)cc(c1O)COCc1cc(C)cc(c1O)COC2
inactive: NCI-H460 92 µM | NCI/ADR-RES > 100 µM | SK-MEL-28 > 100 µM | COLO 205 96.2 µM | 786-0 47.1 µM | UACC-257 > 100 µM | SN12C > 100 µM | HL-60 > 100 µM | DU-145 > 100 µM | OVCAR-8 50.1 µM | SNB-19 > 100 µM | MDA-MB-231 72.8 µM | M14 > 100 µM | ACHN > 100 µM | SF-539 > 100 µM | CAKI-1 > 100 µM | MCF7 > 100 µM | A549 > 100 µM

CCC1c2cc3n(c(=O)c2COC1O)Cc1c-3nc2ccccc2c1Cl (stereo unspecified)
inactive: NCI-H460 3.89 µM | SK-MEL-28 > 100 µM | COLO 205 > 89.5 µM | 786-0 25.7 µM | UACC-257 > 100 µM | SN12C 10.1 µM | HL-60 26.9 µM | OVCAR-8 55.3 µM | SNB-19 30.3 µM | M14 25 µM | ACHN 19.3 µM | LOX IMVI 18.6 µM | SF-539 22.2 µM | CAKI-1 23 µM | A549 28.5 µM

COc1cc(NS(=O)(=O)c2ccc(C)cc2)c2nccnc2c1
inactive: NCI-H460 13 µM | SK-MEL-28 30.7 µM | COLO 205 27 µM | 786-0 36.1 µM | UACC-257 29.8 µM | SN12C 39.3 µM | HL-60 13 µM | OVCAR-8 26.7 µM | SNB-19 29.8 µM | M14 17 µM | ACHN 23.1 µM | LOX IMVI 28 µM | SF-539 29.2 µM | CAKI-1 37.6 µM | A549 24 µM

c1ccc2c(c1)CCc1c(-c3n[nH]c4c3CCc3ccccc3-4)n[nH]c1-2
inactive: NCI-H460 > 100 µM | SK-MEL-28 > 100 µM | COLO 205 > 100 µM | 786-0 > 100 µM | UACC-257 > 100 µM | SN12C > 100 µM | HL-60 > 100 µM | OVCAR-8 > 100 µM | SNB-19 > 100 µM | M14 > 100 µM | ACHN > 100 µM | LOX IMVI > 100 µM | SF-539 > 100 µM | CAKI-1 > 100 µM | A549 > 100 µM

CN(C)c1ccc(C(C=C2c3ccccc3Sc3ccccc32)=C(C#N)C#N)cc1
inactive: NCI-H460 68.9 µM | SK-MEL-28 > 100 µM | COLO 205 > 100 µM | 786-0 92.3 µM | UACC-257 > 100 µM | SN12C > 100 µM | HL-60 > 100 µM | OVCAR-8 94.8 µM | SNB-19 83.4 µM | M14 58.6 µM | ACHN 37.5 µM | LOX IMVI 48.4 µM | SF-539 77.3 µM | CAKI-1 65.9 µM | A549 > 100 µM

CCOC(=O)/C(=C\c1ccccc1)C(=O)O
inactive: NCI-H460 > 100 µM | SK-MEL-28 > 100 µM | COLO 205 > 100 µM | 786-0 > 100 µM | UACC-257 > 100 µM | SN12C > 100 µM | HL-60 > 100 µM | OVCAR-8 > 100 µM | SNB-19 > 100 µM | M14 > 100 µM | ACHN > 100 µM | LOX IMVI > 100 µM | SF-539 > 100 µM | CAKI-1 > 100 µM | A549 > 100 µM

COc1cc(/C=C\c2ccc(Br)cc2)cc(OC)c1OC
active: NCI-H460 0.01 µM | SK-MEL-28 0.1 µM | COLO 205 0.00486 µM | 786-0 0.00043 µM | UACC-257 0.000414 µM | SN12C 0.00168 µM | HL-60 0.000318 µM | OVCAR-8 0.00161 µM | SNB-19 0.0057 µM | M14 0.000312 µM | ACHN 0.000794 µM | LOX IMVI 0.000811 µM | SF-539 0.000463 µM | CAKI-1 0.01 µM | A549 0.000589 µM

CCCCCCCCCCCC(=O)c1c(O)cccc1O
inactive: NCI-H460 21.7 µM | SK-MEL-28 17.8 µM | COLO 205 15.3 µM | 786-0 18.1 µM | UACC-257 16.7 µM | SN12C 19 µM | HL-60 19.9 µM | OVCAR-8 17.9 µM | SNB-19 16.5 µM | M14 18.6 µM | ACHN 19.5 µM | LOX IMVI 18.8 µM | SF-539 18 µM | CAKI-1 23.4 µM | A549 18 µM

Reference: ChEMBL document CHEMBL1201862, “PubChem BioAssay data set” (2004)
